Test results reported in patent US11155841B2, “Method for producing sphingoid base or sphingolipid” (AJINOMOTO CO., INC., priority 2015, dated 2021).

Assay: Phytosphingosine solubility with various cyclodextrins in aqueous solution
Assay type: physicochemical
Conditions: aqueous 2-hydroxypropyl-α-cyclodextrin solution, aqueous with cosolvent or surfactant or cyclodextrin, thermodynamic from solid; excess of pure phytosphingosine (20 g/l) incubated with 2-hydroxypropyl-α-cyclodextrin solution; quantified by LC-MS; read-out: Solubilized phytosphingosine in the supernatants
Method: Phytosphingosine amounts (mg/l) measured in supernatants after incubation of an excess of pure phytosphingosine (20 g/l) with each of the three types of cyclodextrin at various concentrations.
These experiments were conducted to determine if and to what extent cyclodextrins solubilized sphingoid bases. To that end, an excess of phytosphingosine was incubated with increasing concentrations of solutions of three different types of cyclodextrin species—α-cyclodextrin, 2-hydroxypropyl-α-cyclodextrin, 2-hydroxypropyl-β-cyclodextrin. Solubilized phytosphingosine in the supernatants were quantified by liquid chromatography-mass spectrometry (LC-MS) using standards prepared in the same cyclodextrin solutions.

CCCCCCCCCCCCCC[C@@H](O)[C@@H](O)[C@@H](N)CO [phytosphingosine]
solubility: > 9000 µg/mL
